Assay results taken from patent US8562949B2, “Radiolabeled dihydrotetrabenazine derivatives and their use as imaging agents” (The Trustees of the University of Pennsylvania, priority 2006, dated 2013).

How the values were obtained:
VMAT2 = VMAT2 (Rattus norvegicus, UniProt Q01827); test: Competition for [3H](±)TBZ binding in rat striatal homogenates; parameters: The basal forebrain regions of rat and mouse brains were then dissected; from tissue; host or cells: rat striatum / basal forebrain homogenate; conditions: Kd […] used for calculation
DAT sites = DAT sites (Mus musculus, UniProt Q61327); test: Dual isotope experiment in lesioned mice, [125I]IPT
Excerpt: Thirty minutes after injection, the mice were sacrificed and the brains removed. Different regions corresponding to striatum (ST), hippocampus (HP), cerebellum (CB), and cortex (CX) were dissected. In particular, the lesioned region was separated from non-lesioned area of the striatal tissues. Samples were counted in a gamma counter with two different window settings for F-18 and I-125, respectively, to obtain the regional distribution of each tracer.
To measure the degree of lesion, a dual-isotope experiment comparing the striatal uptakes in lesioned vs. unlesioned sites using [^18F]FP-DTBZ was performed. A marker [^125I]IPT (selective for dopamine transporters) was injected simultaneously.

[1] = lesioned Mouse 1, 30 min post-injection
[2] = lesioned Mouse 2, 30 min post-injection
[3] = lesioned Mouse 3, 30 min post-injection
[4] = lesioned Mouse 4, 30 min post-injection

Chain of VMAT2 (Q01827 whole entry): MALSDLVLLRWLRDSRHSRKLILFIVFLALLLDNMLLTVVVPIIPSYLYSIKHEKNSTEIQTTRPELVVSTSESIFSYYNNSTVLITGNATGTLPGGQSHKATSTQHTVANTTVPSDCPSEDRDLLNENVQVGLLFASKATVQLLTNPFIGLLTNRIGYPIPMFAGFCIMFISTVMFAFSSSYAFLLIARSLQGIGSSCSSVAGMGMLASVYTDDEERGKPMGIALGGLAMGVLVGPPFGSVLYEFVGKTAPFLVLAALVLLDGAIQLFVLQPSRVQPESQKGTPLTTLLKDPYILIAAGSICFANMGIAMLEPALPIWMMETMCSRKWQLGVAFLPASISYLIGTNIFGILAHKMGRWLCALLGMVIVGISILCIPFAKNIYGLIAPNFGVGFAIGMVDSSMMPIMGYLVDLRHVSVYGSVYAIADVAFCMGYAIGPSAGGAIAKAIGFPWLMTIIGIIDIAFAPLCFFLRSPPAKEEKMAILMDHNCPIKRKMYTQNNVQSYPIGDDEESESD
Chain of DAT sites (Q61327 whole entry): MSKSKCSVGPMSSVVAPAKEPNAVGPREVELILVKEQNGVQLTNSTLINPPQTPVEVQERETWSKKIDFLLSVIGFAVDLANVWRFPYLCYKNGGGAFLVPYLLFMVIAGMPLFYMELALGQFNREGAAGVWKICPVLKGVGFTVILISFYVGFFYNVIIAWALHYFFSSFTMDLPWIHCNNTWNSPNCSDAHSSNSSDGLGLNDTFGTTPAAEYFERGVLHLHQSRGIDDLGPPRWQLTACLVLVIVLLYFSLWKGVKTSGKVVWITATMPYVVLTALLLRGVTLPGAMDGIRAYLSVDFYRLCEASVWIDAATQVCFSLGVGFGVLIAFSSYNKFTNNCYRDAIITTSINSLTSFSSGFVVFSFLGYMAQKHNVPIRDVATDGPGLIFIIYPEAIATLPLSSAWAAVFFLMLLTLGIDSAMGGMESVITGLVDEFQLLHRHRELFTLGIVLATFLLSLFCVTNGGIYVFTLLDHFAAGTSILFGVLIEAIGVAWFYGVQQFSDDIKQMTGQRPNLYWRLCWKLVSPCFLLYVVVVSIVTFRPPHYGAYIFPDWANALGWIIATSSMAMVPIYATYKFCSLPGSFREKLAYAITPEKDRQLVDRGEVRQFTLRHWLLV

COc1cc2c(cc1OCCCF)CCN1CC(CC(C)C)C(O)CC21 (racemic) [Compound 6b, (±)-2-hydroxy-3-isobutyl-9-(3-fluoropropoxy)-10-methoxy-1,2,3,4,6,7-hexahydro-11bH-benzo[a]quinolizine]
Ki (VMAT2; [3H](±)-TBZ): 0.19 ± 0.04 nM

COc1cc2c(cc1O)CCN1CC(CC(C)C)C(O)CC21 (racemic) [3,9-desmethyl-(±)DTBZ, (±)-9-O-Desmethyldihydrotetrabenazine, reference compound]
Ki (VMAT2; [3H](±)TBZ 1.0-1.5 nM): 11.8 ± 1.7 nM

COC(=O)C1C(c2ccc(Cl)cc2)CC2CCC1N2CC=CI (stereo not drawn) [[^125I]IPT, N-(3′-iodopropen-2′-yl)-2-beta-carbomethoxy-3-beta-(4-chlorophenyl)tropane]
% StrL/StrN (DAT sites; [1]): 32.6%
Regional brain distribution Cerebellum (CB) (DAT sites; [1]): 0.96 % dose/g
Regional brain distribution Cortex (DAT sites; [1]): 0.69 % dose/g
Regional brain distribution Hippocampus (DAT sites; [1]): 0.87 % dose/g
Regional brain distribution Hypothalamus (DAT sites; [1]): 1.28 % dose/g
Regional brain distribution Remainder (DAT sites; [1]): 1.34 % dose/g
ratio vs. CB, Cerebellum (CB) (DAT sites; [1]): 1.00
ratio vs. CB, Cortex (DAT sites; [1]): 0.72
ratio vs. CB, Hippocampus (DAT sites; [1]): 0.91
ratio vs. CB, Hypothalamus (DAT sites; [1]): 1.34
ratio vs. CB, Remainder (DAT sites; [1]): 1.40
ratio vs. CB, Stratum N (DAT sites; [1]): 9.63
ratio vs. CB, Striatum L (DAT sites; [1]): 3.14
% StrL/StrN (DAT sites; [2]): 55.7%
Regional brain distribution Cerebellum (CB) (DAT sites; [2]): 0.77 % dose/g
Regional brain distribution Cortex (DAT sites; [2]): 0.62 % dose/g
Regional brain distribution Hippocampus (DAT sites; [2]): 0.70 % dose/g
Regional brain distribution Hypothalamus (DAT sites; [2]): 1.22 % dose/g
Regional brain distribution Remainder (DAT sites; [2]): 1.16 % dose/g
ratio vs. CB, Cerebellum (CB) (DAT sites; [2]): 1.00
ratio vs. CB, Cortex (DAT sites; [2]): 0.80
ratio vs. CB, Hippocampus (DAT sites; [2]): 0.90
ratio vs. CB, Hypothalamus (DAT sites; [2]): 1.58
ratio vs. CB, Remainder (DAT sites; [2]): 1.49
ratio vs. CB, Stratum N (DAT sites; [2]): 8.17
ratio vs. CB, Striatum L (DAT sites; [2]): 4.55
% StrL/StrN (DAT sites; [3]): 52.3%
Regional brain distribution Cerebellum (CB) (DAT sites; [3]): 0.81 % dose/g
Regional brain distribution Cortex (DAT sites; [3]): 0.66 % dose/g
Regional brain distribution Hippocampus (DAT sites; [3]): 0.81 % dose/g
Regional brain distribution Hypothalamus (DAT sites; [3]): 1.42 % dose/g
Regional brain distribution Remainder (DAT sites; [3]): 1.57 % dose/g
ratio vs. CB, Cerebellum (CB) (DAT sites; [3]): 1.00
ratio vs. CB, Cortex (DAT sites; [3]): 0.81
ratio vs. CB, Hippocampus (DAT sites; [3]): 1.00
ratio vs. CB, Hypothalamus (DAT sites; [3]): 1.76
ratio vs. CB, Remainder (DAT sites; [3]): 1.95
ratio vs. CB, Stratum N (DAT sites; [3]): 11.3
ratio vs. CB, Striatum L (DAT sites; [3]): 5.90
% StrL/StrN (DAT sites; [4]): 88.7%
Regional brain distribution Cerebellum (CB) (DAT sites; [4]): 0.76 % dose/g
Regional brain distribution Cortex (DAT sites; [4]): 0.87 % dose/g
Regional brain distribution Hippocampus (DAT sites; [4]): 0.62 % dose/g
Regional brain distribution Hypothalamus (DAT sites; [4]): 0.99 % dose/g
Regional brain distribution Remainder (DAT sites; [4]): 1.16 % dose/g
ratio vs. CB, Cerebellum (CB) (DAT sites; [4]): 1.00
ratio vs. CB, Cortex (DAT sites; [4]): 1.15
ratio vs. CB, Hippocampus (DAT sites; [4]): 0.81
ratio vs. CB, Hypothalamus (DAT sites; [4]): 1.31
ratio vs. CB, Remainder (DAT sites; [4]): 1.53
ratio vs. CB, Stratum N (DAT sites; [4]): 10.2
ratio vs. CB, Striatum L (DAT sites; [4]): 9.07

COc1cc2c(cc1OCCCF)CCN1CC(CC(C)C)C(O)CC21 (single isomer, unassigned) [FP-(−)-DTBZ]
Ki (VMAT2; [3H](±)-TBZ): > 3000 nM
